Series [1] is described as follows: AFM morphology of self-assembling peptide nanofiber matrices. The class given is physicochemical. On the procedure:
(§1) (RADA)4 (SEQ ID NO: 1) and (RADA)4-GG-(PAMP-12) (SEQ ID NO:2) stock solutions (1.0% w/v) were prepared by dissolving peptide powder in syringe filtered (0.2 μm) Milli-Q water. Peptide stock solutions were sonicated for 30 min to avoid bulk aggregates and reduce viscosity. (RADA)4 peptide solutions with different proportion of (RADA)4-GG-(PAMP-12) (SEQ ID NO: 2) (0, 2.5, 5, 10, 20, 40, 80, 100% w/w) were mixed with 1x PBS (pH 7.4) at a ratio of 1:1 (v/v) to get hydrogel matrices with peptide concentration of 0.5% w/v. Fifty μl of the mixture was placed at the bottom of a 96-well plate or well insert, overnight at 4° C. and washed with HEPES buffer (10 mM, with 0.4% BSA, pH 7.4) or PBS for 3 times.
The morphology of the hydrogel matrices were measured using Dimension 3100 Nanoman Atomic Force Microscopy (AFM, Veeco Metrology, LLC) with tapping mode, tip radius of 8 nm. Matrix solutions used in AFM studies were prepared by 500 times diluted with Mili-Q water. A drop (5 ul) of each solution was placed on freshly cleaved mica substrate then rise with water. The surfaces were air dried overnight at room temperature before being imaged.

The subject of series [2] is LAD2 cells. The experiment in a line: Laser-scanning confocal microscopy of LAD2 cells on hydrogel matrices (adhesion, F-actin). As to conditions: 0.5% w/v matrix (pure (RADA)4 or 20% w/w (RADA)4-GG-(PAMP-12)). The class given is cell-based, human. The procedure:
For each sample, 0.25×10^5 LAD2 cells in 50 μl culture medium were allowed to incubate with 50 μl hydrogel matrix for 30 min at 37° C. After incubation, the medium was disposed, and hydrogel matrix was carefully washed by warm PBS for 3 times to remove non-adherent cells. Hydrogel matrices were then fixed in 3.7% paraformaldehyde in PBS for 20 min at room temperature and 3 times washed in PBS. Cells were permeabilized with 0.1% Triton X-100 in PBS for 5 min, washed in PBS for 3 times, then followed by 3% BSA blocking for 30 min and 3 times washing in PBS. To stain F-actin, samples were incubated with 0.5 μM Phalloidin-FITC (Sigma-Aldrich, USA) for 30 minutes and followed by 3 times washing in PBS. Cell nuclei were stained with 1 ug/mL DAPI (Sigma-Aldrich, USA) in PBS for 30 min. After 3 times washing in PBS, Z-slice images of the matrix with adhered LAD2 cells were collected using Laser Scanning Confocal Microscopy (LSM710, Carl Zeizz AG, Oberkochen, Germany) with an inverted 10× objective.

Series [3] concerns LAD2 cells. The experiment in a line: β-hex release assay, co-culture with well insert (0.2 μm pore size filter). Type of series: cell-based, human. As to conditions: 30 min. The procedure:
To evaluate the immobilization effect of (RADA)4-GG-(PAMP-12) (SEQ ID NO: 2) in the matrices. As shown in FIG. 6 (A), 0.25×10^5 LAD2 cells in 100 μl HEPES buffer (10 mM, with 0.4% BSA, pH 7.4) were co-incubated with well inserts that contain 50 μl of self-assembling matrix (20% and 100% w/w of (RADA)4-GG-(PAMP-12) (SEQ ID NO: 2)) or PAMP-12 (SEQ ID NO: 3) solution in HEPES buffer (10 mM, with 0.4% BSA, pH 7.4) with the corresponding concentration (0.29 and 1.46 mM respectively). After 30 min incubation, inserts were removed, and the β-hex release was measured as described.

Series [4] relates to LAD2 cells. The experiment in a line: β-hex release assay, LAD2 cells on top of hydrogel matrices. The class given is cell-based, human. To be noted: for degranulation activity (β-hex release): 30 min. The procedure: as §1
LAD2 (Laboratory of Allergic Diseases 2) human mast cells were incubated in StemPro-34 SFM medium (Life Technologies, Rockville, Md.) supplemented with 2 mM L-glutamine, 100 I/ml penicillin, 50 μg/ml streptomycin, 100 ng/ml recombinant human SCF (Peprotech, Rocky Hill, N.J.). Cells were maintained at 0.1×10^6 cells/ml at 37° C. and 5% CO2. Cell suspensions were isolated via centrifugation (200 g, 5 min, at room temperature) and media was replaced every 3-7 days.
To evaluate the effect of the matrices on degranulation, 0.25×10^5 LAD2 cells in 50 μl HEPES buffer (10 mM, with 0.4% BSA, pH 7.4) were carefully placed on the top of 50 μl hydrogel matrices, and the β-hex release was measured as described. After 30 min incubation, cell free supernatant and total cells with the matrices were collected by centrifugation (300 g, 5 min) for analysis.

The subject of series [5] is LAD2 cells. The experiment in a line: β-hexosaminidase (β-hex) release assay, peptide solutions. To be noted: 30 min. Type of series: cell-based, human. On the procedure:
LAD2 (Laboratory of Allergic Diseases 2) human mast cells were incubated in StemPro-34 SFM medium (Life Technologies, Rockville, Md.) supplemented with 2 mM L-glutamine, 100 I/ml penicillin, 50 μg/ml streptomycin, 100 ng/ml recombinant human SCF (Peprotech, Rocky Hill, N.J.). Cells were maintained at 0.1×10^6 cells/ml at 37° C. and 5% CO2. Cell suspensions were isolated via centrifugation (200 g, 5 min, at room temperature) and media was replaced every 3-7 days. For each well, 0.25×10^5 LAD2 cells were washed and resuspended in 90 μl HEPES buffer (10 mM, with 0.4% BSA, pH 7.4), and activated by adding 10 μl peptide solutions (PAMP-12 […], (RADA)4 (SEQ ID NO: 1) and (RADA)4-GG-(PAMP-12) (SEQ ID NO: 2)) in PBS (1×, pH 7.4) for 30 min at 37° C., the final concentrations of peptide are 0, 0.01, 0.1, 1, 10, 20, 50, 100 μM respectively. β-hex release was quantified through analysis of the hydrolysis of p-nitrophenyl N-acetyl-b-D-glucosamide (Sigma Aldrich, Oakville, ON, Canada) in 0.1 M sodium citrate buffer (pH 4.5) for both the supernatant and in total cell lysates solubilized with 0.01% Triton X-100 for 90 min at 37° C. The reaction was stopped by adding glycine buffer (pH 10.7). Read absorbance at 405 nm with reference filter at 620 nm. The percent-age of β-hex released into the supernatant was calculated by the β-hex contents of supernatant and cell lysate.

[6] abbreviates: pure (RADA)4-GG-(PAMP-12), 0.5% w/v.

`CC(=O)N[C@@H](CCCNC(=N)N)C(=O)N[C@@H](C)C(=O)N[C@@H](CC(=O)O)C(=O)N[C@@H](C)C(=O)N[C@@H](CCCNC(=N)N)C(=O)N[C@@H](C)C(=O)N[C@@H](CC(=O)O)C(=O)N[C@@H](C)C(=O)N[C@@H](CCCNC(=N)N)C(=O)N[C@@H](C)C(=O)N[C@@H](CC(=O)O)C(=O)N[C@@H](C)C(=O)N[C@@H](CCCNC(=N)N)C(=O)N[C@@H](C)C(=O)N[C@@H](CC(=O)O)C(=O)N[C@@H](C)C(=O)NCC(=O)NCC(=O)N[C@@H](Cc1ccccc1)C(=O)N[C@@H](CCCNC(=N)N)C(=O)N[C@@H](CCCCN)C(=O)N[C@@H](CCCCN)C(=O)N[C@@H](Cc1c[nH]c2ccccc12)C(=O)N[C@@H](CC(N)=O)C(=O)N[C@@H](CCCCN)C(=O)N[C@@H](Cc1c[nH]c2ccccc12)C(=O)N[C@@H](C)C(=O)N[C@@H](CC(C)C)C(=O)N[C@@H](CO)C(=O)N[C@@H](CCCNC(=N)N)C(N)=O` [(RADA)4-GG-(PAMP-12)]: the “nanofiber length (most of the nanofibers)” value in series [1] (20% and 40% w/w (RADA)4-GG-(PAMP-12) in (RADA)4, 0.5% w/v) is over 500 nm; in series [1] (setting [6]), “less than 500 nm”. Also, the nanoparticle size entry in series [1] (setting [6]) is “less than 200 nm”. In series [1] (pure peptide, 0.5% w/v), the nanostructure morphology entry was “thick and short nanofibers and even small nanoparticles”. The “nanofiber height (AFM cross section)” value in series [1] (pure peptide, 0.5% w/v matrix) is listed as 2.5-3.5 nm. In addition, the “F-actin organization / cell morphology of LAD2 cells” value in the series on LAD2 cells [2] (2D imaging) was “lamellipodia and filopodia were observed”. Moreover, the “LAD2 cells associated with matrix post-wash” value with LAD2 cells [2] (30 min incubation) was “considerable amount of cells retained after washing”. In addition, the “degranulation of LAD2 (β-hex release)” value was 11.1±1.1% in the series on LAD2 cells [3] (0.5% w/v matrix with 20% w/w (RADA)4-GG-(PAMP-12) in insert) and 59.6±3.1% in the series on LAD2 cells [3] (matrix of 100% w/w (RADA)4-GG-(PAMP-12) in insert). Besides, the “degranulation activity (β-hex release)” value with LAD2 cells [4] (0.5% w/v hydrogel matrix with 20% w/w (RADA)4-GG-(PAMP-12)) came to 64.2±3.4%; with LAD2 cells [4] (0.5% w/v hydrogel matrix with 40% w/w (RADA)4-GG-(PAMP-12)), 70.2±7.1%. Further, the “degranulation activity versus proportion in matrix” value in the series on LAD2 cells [4] ((RADA)4-GG-(PAMP-12) from 2.5 to 20% w/w in matrix) was “increased proportionally”. In addition, in the series with LAD2 cells [5] (peptide solutions, various concentrations, compared with PBS), the “LAD2 degranulation (β-hex release)” value is on record as “induced significant degranulation”. In addition, in the series on LAD2 cells [5] (solution free peptide, 10 μM), the “β-hex release (plateau)” value is reported as about 75%.

The values are drawn from US11370822B2, “Self-assembling peptide for activating human mast cells” (The Governors of the University of Alberta, priority 2017, dated 2022).
